Test results published in ChEMBL document CHEMBL1148503, “Evaluation of the eutomer of 4-{3-(4-chlorophenyl)-3-hydroxypyrrolidin-1-yl}-1-(4-fluorophenyl)butan-1-one, {(+)-SYA 09}, a pyrrolidine analog of haloperidol” (Bioorg Med Chem Lett, 2006).
pKi: −log10 of the molar value.

Key:
Mus musculus = assay: Inhibition of apomorphine-induced climbing in ip dosed Swiss Webster mouse; assay type: functional
[1] = biological target: T1, 5-hydroxytryptamine receptor 1A (Homo sapiens, UniProt P08908); assay: Binding affinity to human cloned 5HT1A receptor by radioligand binding assay
T1 sequence (P08908 whole entry): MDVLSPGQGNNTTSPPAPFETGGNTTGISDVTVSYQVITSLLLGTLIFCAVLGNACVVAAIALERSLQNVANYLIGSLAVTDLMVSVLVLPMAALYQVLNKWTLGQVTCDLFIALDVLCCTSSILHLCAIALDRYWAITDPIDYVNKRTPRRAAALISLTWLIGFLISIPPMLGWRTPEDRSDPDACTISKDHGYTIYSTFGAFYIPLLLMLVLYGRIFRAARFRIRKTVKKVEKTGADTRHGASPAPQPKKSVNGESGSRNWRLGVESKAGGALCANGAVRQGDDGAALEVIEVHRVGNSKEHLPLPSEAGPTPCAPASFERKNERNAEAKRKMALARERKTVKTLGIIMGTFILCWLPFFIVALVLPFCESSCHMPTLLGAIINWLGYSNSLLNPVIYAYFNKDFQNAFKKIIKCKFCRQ

[2] = biological target: T2, 5-hydroxytryptamine receptor 2C (Homo sapiens, UniProt P28335); assay: Binding affinity to human cloned 5HT2C receptor by radioligand binding assay
T2 sequence (P28335 whole entry): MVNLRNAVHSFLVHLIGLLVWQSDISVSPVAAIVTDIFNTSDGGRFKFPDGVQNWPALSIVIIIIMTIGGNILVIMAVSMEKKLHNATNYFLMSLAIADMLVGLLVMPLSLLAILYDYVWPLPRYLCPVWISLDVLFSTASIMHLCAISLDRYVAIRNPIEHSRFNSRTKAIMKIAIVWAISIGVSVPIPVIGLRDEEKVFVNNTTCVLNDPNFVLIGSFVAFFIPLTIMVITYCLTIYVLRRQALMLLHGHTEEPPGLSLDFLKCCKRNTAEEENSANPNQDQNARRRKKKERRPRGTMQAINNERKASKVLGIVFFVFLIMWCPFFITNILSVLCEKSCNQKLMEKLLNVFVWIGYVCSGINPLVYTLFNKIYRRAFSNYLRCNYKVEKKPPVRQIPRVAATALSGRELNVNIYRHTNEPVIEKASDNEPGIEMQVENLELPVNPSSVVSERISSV

[3] = biological target: T3, Alpha-1A adrenergic receptor (Homo sapiens, UniProt P35348); assay: Binding affinity to human cloned adrenergic alpha-1A receptor by radioligand binding assay
T3 sequence (P35348 whole entry): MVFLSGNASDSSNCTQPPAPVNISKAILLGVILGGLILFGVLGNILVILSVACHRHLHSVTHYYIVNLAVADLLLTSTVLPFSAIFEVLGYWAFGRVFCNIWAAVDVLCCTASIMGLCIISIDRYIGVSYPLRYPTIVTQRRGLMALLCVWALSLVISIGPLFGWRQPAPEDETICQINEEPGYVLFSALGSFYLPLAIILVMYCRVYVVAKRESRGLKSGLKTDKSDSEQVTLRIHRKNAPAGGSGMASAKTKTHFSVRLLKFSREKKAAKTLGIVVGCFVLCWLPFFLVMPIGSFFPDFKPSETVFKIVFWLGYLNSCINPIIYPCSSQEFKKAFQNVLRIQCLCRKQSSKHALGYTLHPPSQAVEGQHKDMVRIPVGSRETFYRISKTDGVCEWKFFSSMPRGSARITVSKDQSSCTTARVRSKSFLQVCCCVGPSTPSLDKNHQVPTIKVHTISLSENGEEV

[4] = biological target: T4, Alpha-1B adrenergic receptor (Homo sapiens, UniProt P35368); assay: Binding affinity to human cloned adrenergic alpha-1B receptor by radioligand binding assay
T4 sequence (P35368 whole entry): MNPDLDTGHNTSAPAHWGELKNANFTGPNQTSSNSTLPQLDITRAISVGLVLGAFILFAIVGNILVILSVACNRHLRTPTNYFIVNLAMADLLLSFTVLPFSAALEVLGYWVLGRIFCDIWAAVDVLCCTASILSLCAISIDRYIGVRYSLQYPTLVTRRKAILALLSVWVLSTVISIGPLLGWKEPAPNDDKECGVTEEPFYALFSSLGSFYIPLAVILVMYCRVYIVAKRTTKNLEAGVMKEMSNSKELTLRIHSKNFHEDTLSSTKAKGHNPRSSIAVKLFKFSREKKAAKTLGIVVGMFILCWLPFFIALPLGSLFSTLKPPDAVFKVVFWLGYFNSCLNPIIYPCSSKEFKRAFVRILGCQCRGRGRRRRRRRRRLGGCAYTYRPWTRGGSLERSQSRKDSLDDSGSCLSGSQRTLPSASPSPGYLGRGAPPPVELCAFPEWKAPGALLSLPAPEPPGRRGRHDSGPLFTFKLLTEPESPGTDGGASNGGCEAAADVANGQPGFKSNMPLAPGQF

[5] = biological target: T5, Alpha-2A adrenergic receptor (Homo sapiens, UniProt P08913); assay: Binding affinity to human cloned adrenergic alpha-2A receptor by radioligand binding assay
T5 sequence (P08913 whole entry): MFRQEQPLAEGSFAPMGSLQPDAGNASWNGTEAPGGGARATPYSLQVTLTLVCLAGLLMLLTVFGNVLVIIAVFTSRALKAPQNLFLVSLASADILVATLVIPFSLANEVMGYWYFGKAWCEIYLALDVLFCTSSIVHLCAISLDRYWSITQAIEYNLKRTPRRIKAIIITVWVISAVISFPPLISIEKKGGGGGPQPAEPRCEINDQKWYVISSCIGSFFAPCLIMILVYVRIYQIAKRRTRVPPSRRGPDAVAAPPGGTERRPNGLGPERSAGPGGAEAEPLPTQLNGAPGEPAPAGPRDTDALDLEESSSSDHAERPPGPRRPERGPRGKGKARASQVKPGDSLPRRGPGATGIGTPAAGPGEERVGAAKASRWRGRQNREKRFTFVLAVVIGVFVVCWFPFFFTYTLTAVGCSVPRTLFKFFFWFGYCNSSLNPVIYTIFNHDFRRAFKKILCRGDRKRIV

[6] = biological target: T6, Alpha-2B adrenergic receptor (Homo sapiens, UniProt P18089); assay: Binding affinity to human cloned adrenergic alpha-2B receptor by radioligand binding assay
T6 sequence (P18089 whole entry): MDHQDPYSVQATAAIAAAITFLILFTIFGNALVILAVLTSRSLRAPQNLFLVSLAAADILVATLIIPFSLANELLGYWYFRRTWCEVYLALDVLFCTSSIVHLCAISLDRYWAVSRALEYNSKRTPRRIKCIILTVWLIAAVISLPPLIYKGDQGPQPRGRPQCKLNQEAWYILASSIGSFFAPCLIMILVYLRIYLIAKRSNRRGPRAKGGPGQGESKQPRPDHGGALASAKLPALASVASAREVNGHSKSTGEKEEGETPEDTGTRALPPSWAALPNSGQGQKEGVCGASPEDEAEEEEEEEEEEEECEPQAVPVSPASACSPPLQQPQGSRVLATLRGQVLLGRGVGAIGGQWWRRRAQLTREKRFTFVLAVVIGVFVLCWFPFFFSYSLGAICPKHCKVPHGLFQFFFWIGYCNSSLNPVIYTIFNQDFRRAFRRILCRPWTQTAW

[7] = biological target: T7, Alpha-2C adrenergic receptor (Homo sapiens, UniProt P18825); assay: Binding affinity to human cloned adrenergic alpha-2C receptor by radioligand binding assay
T7 sequence (P18825 whole entry): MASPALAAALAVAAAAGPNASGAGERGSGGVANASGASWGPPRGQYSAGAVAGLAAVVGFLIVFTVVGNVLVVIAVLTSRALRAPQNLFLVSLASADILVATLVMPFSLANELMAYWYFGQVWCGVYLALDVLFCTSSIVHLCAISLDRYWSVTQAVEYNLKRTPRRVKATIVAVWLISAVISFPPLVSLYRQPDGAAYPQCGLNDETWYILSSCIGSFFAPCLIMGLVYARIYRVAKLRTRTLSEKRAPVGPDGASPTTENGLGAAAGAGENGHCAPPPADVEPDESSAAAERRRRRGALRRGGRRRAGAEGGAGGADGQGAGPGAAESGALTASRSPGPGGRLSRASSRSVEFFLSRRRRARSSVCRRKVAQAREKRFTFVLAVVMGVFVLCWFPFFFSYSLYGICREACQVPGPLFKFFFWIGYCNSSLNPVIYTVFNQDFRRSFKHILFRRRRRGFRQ

Row | pKi [1] | pKi [2] | pKi [3] | pKi [4] | SMILES | ED50 (Mus musculus) | pKi [5] | pKi [6] | pKi [7]
1 | – | – | – | – | CN1CCN(C2=Nc3cc(Cl)ccc3Nc3ccccc32)CC1 [CLOZAPINE] | 5.54 mg/kg | – | – | –
2 | 6.14 | 5.44 | 6.94 | 6.99 | O=C(CCCN1CCC(O)(c2ccc(Cl)cc2)C1)c1ccc(F)cc1 (single isomer, unassigned; (+)) | 1.6 mg/kg | – | – | –
3 | – | – | – | – | O=C(CCCN1CCC(O)(c2ccc(Cl)cc2)CC1)c1ccc(F)cc1 [HALOPERIDOL] | 0.007 mg/kg | – | – | –
4 | 6.08 | 5.90 | 7.47 | 7.38 | O=C(CCCN1CCC(O)(c2ccc(Cl)cc2)C1)c1ccc(F)cc1 (stereo in doubt; 2b) | – | – | – | –

Row | SMILES | pKi [1] | pKi [2] | pKi [3] | pKi [4] | ED50 (Mus musculus) | pKi [5] | pKi [6] | pKi [7]
5 | O=C(CCCN1C2CCC1CC(O)(c1ccc(Cl)cc1)C2)c1ccc(F)cc1 (stereo unspecified) | – | – | 7.41 | 7.37 | – | 5.55 | 6.29 | 6.85
